The values that follow are results of earlier work, collected in patent US5973199A, “Hydrosoluble organic salts of creatine” (priority 1994, dated 1999).

Experiment in series [1]: not given
This is another data set of the same source.

Take `CN(CC(=O)O)C(=N)N` [creatine, N-(aminoiminomethyl)-N-methylglycine]: the “creatine half-life in plasma” value was 1 to 1.5 h. Moreover, the “tolerability of high doses” value in series [1] (high doses of 5-10 g (mean body weights of 70 kg)) is “well tolerated”. Moreover, the toxicity entry in series [1] (in vivo) was “lack of toxicity”.
